Consider three molecules from patent publication EP0807626A1, “N-HYDROXYUREA DERIVATIVES” (Nikken Chemicals Company, Limited, priority 1995, dated 1996).

Molecules are shown by their SMILES.

This test deals with antigen-induced bronchoconstriction. In words: Antigen-induced bronchoconstriction model of guinea pig (Konzett-Rossler method). It counts as in vivo. Conditions: Cavia porcellus, po, 1 h; guinea pigs sensitized by ovalbumin, orally administered, one hour after administration; read-out: Suppression of Respiratory Constriction (ED50: mg/kg). The method, then: Guinea pigs sensitized by ovalbumin were used and orally administered with the test compound suspended in 5% gum arabic. The activity for suppressing antigen-induced bronchoconstriction after one hour after administration was measured by the Konzett-Rossler method.
Each of the sensitized guinea pigs was anesthesized by 35 mg/kg pentobarbital, a airway cannula was inserted into the trachea and connected to an artificial respirator and transducer, a vein cannula was inserted into the jugular vein, and treatment was performed by 5 mg/kg soxamethonium and 5 mg/kg mepyramine. Next, the guinea pig was inhaled a nebulized ovalbumin to cause bronchoconstriction and the activity in suppressing bronchoconstriction was found from the ratio of the amount of overflow volume to the detector to the amount of air blown volume from the artificial respirator.
As the test compound, the Compound 7 was used. […]
Take `NC(=O)N(O)CCCC(c1ccccc1)c1cccnc1` (stereo not drawn) [Compound 7, N-hydroxy-N-[4-phenyl-4-(3-pyridyl)butyl]urea]: the ED50 was 70 mg/kg.

Regarding `CC(c1cc2ccccc2s1)N(O)C(N)=O` (stereo not drawn) [Compound A-64077], the ED50 was 300 mg/kg.

For the molecule `O=C(O)/C=C/c1ccc(Cn2ccnc2)cc1` [OKY-046], the ED50 stood at 260 mg/kg.
